Experimental data: PMC3039983, “Cloning, Expression, and Characterization of Thermotolerant Manganese Superoxide Dismutase from Bacillus sp. MHS47” (International Journal of Molecular Sciences, 2011)

Molecular target: T1, MnSOD47 (Bacillus sp. MHS47, UniProt E9LK91)
T1 construct: gene sodA
Experiment: xanthine oxidase/hypoxanthine-tetrazolium SOD assay, […] nm
Format: biochemical
Conditions: superoxide generated in situ by xanthine oxidase/hypoxanthine; indirect read-out

T1 sequence (E9LK91 1-203 limits assumed): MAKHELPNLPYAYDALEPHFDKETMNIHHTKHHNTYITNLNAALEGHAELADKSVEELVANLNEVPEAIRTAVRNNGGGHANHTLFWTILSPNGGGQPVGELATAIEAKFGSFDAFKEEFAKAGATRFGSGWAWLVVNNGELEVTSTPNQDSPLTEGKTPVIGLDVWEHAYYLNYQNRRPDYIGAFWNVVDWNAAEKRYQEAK

[O]O [superoxide radical]
xanthine oxidase/hypoxanthine-tetrazolium SOD assay, 450 nm: coupled to a tetrazolium salt to detect the reduction in superoxide radicals
